# System: not listed separately
# Assay: LogP by HPLC on reversed phase columns (EEC directive 79/831 Annex V.A8)
# Format: physicochemical
# Conditions: method [a]: LC-UV, acidic range, 0.1% formic acid in water and acetonitrile as eluent (linear gradient 10% to 95% acetonitrile)
# Procedure, shortened: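 Reversed-phase HPLC per EEC directive 79/831 Annex V.A8. Calibrated with straight-chain alkan-2-ones (C3–C16) of known LogP, LogP from retention times by linear interpolation between successive alkanones. Lambda-max taken from UV spectra (200–400 nm) at chromatographic peak maxima.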
row,SMILES,chromatographic logP
1,COC(=O)[C@H](CSC(=O)N(C)C)NC(=O)c1sc(Cl)c(Cl)c1Cl [I.142],3.56

# Same assay, conditions: reversed phase HPLC columns, given in the preparation examples; method not marked
row,SMILES,chromatographic logP
1,"O=C(O)CNC(=S)c1sc(Cl)c(Cl)c1Cl [I.022, N-[(3,4,5-trichloro-2-thienyl)carbonothioyl]glycine]",3.17
2,"COC(=O)CNC(=S)c1sc(Cl)c(Cl)c1Cl [I.038, methyl N-[(3,4,5-trichloro-2-thienyl)carbonothioyl]glycinate]",4.05

# Same assay, conditions: reversed phase HPLC columns, method [a]: LC-UV, acidic range, 0.1% formic acid in water and acetonitrile as eluent (linear gradient 10% to 95% acetonitrile)
row,SMILES,chromatographic logP
1,CCOC(=O)C(CSC)NC(=O)c1sc(Cl)c(Cl)c1Cl (stereo not shown) [I.143],4.29
2,COC(=O)C[C@H](NC(=O)c1sc(Cl)c(Cl)c1Cl)C(=O)OC [I.144],3.28

# Same assay, conditions: reversed phase HPLC columns, method [a]: LC-UV, in an acidic range, with 0.1% formic acid in water and acetonitrile as eluent (linear gradient from 10% to 95% acetonitrile)
row,SMILES,chromatographic logP
1,COC(=O)[C@H](CCCNC(=N)N)NC(=O)c1sc(Cl)c(Cl)c1Cl [I.008],1.73
2,CCOC(=O)C(C#N)NC(=O)c1sc(Cl)c(Cl)c1Cl (stereo not shown) [I.009],3.31
3,"O=C(O)CNC(=S)c1sc(Cl)c(Cl)c1Cl [I.022, N-[(3,4,5-trichloro-2-thienyl)carbonothioyl]glycine]",3.17
4,"COC(=O)CNC(=S)c1sc(Cl)c(Cl)c1Cl [I.038, methyl N-[(3,4,5-trichloro-2-thienyl)carbonothioyl]glycinate]",4.05

# System: Xanthomonas campestris pv. campestris
# Assay: In vivo preventive test on Xanthomonas campestris pv. campestris (black rot on cabbage)
# Conditions: 31 ppm of active ingredient, evaluated 8 or 10 days after inoculation, read-out: efficacy
# Procedure, shortened: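 Young cabbage plants sprayed with compound in acetone/DMSO/Tween diluted in water; solvent-only controls. Leaves sprayed with bacterial suspension 72 h later, then held 8 or 10 days at 27° C and 95% relative humidity. Efficacy scored 8 or 10 days post-inoculation, 0% matching controls, 100% meaning no disease.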
row,SMILES,pest or weed control at 31 ppm [%]
1,COC(=O)[C@H](CCCNC(=N)N)NC(=O)c1sc(Cl)c(Cl)c1Cl [I.008],80 to 89
2,CCOC(=O)C(C#N)NC(=O)c1sc(Cl)c(Cl)c1Cl (stereo not shown) [I.009],90 to 100
3,"COC(=O)CNC(=S)c1sc(Cl)c(Cl)c1Cl [I.038, methyl N-[(3,4,5-trichloro-2-thienyl)carbonothioyl]glycinate]",80 to 89
4,COC(=O)[C@H](CSC(=O)N(C)C)NC(=O)c1sc(Cl)c(Cl)c1Cl [I.142],80 to 89
5,CCOC(=O)C(CSC)NC(=O)c1sc(Cl)c(Cl)c1Cl (stereo not shown) [I.143],90 to 100
6,COC(=O)C[C@H](NC(=O)c1sc(Cl)c(Cl)c1Cl)C(=O)OC [I.144],80 to 89

# Same assay, conditions: 125 ppm of active ingredient, evaluated 8 or 10 days after inoculation, read-out: efficacy
row,SMILES,pest or weed control at 125 ppm [%]
1,CCOC(=O)C(C#N)NC(=O)c1sc(Cl)c(Cl)c1Cl (stereo not shown) [I.009],90 to 100
2,"COC(=O)CNC(=S)c1sc(Cl)c(Cl)c1Cl [I.038, methyl N-[(3,4,5-trichloro-2-thienyl)carbonothioyl]glycinate]",80 to 89
3,COC(=O)[C@H](CSC(=O)N(C)C)NC(=O)c1sc(Cl)c(Cl)c1Cl [I.142],90 to 100
4,CCOC(=O)C(CSC)NC(=O)c1sc(Cl)c(Cl)c1Cl (stereo not shown) [I.143],80 to 89

# System: Pseudomonas syringae pv. tomato
# Assay: In vivo preventive test on Pseudomonas syringae pv. tomato (bacterial speck on tomato)
# Conditions: 31 ppm of active ingredient, evaluated 5 or 6 days after inoculation, read-out: efficacy
# Procedure, shortened: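 Young tomato plants sprayed with compound in acetone/DMSO/Tween diluted in water; solvent-only controls. Inoculated 72 h later by spraying leaves with bacterial suspension; 4 days saturated atmosphere then 1–2 days at 70–80% RH, 22 °C day/20 °C night. Efficacy scored 5–6 days post-inoculation, 0% = control, 100% = no disease.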
row,SMILES,pest or weed control at 31 ppm [%]
1,COC(=O)[C@H](CSC(=O)N(C)C)NC(=O)c1sc(Cl)c(Cl)c1Cl [I.142],70 to 79
2,CCOC(=O)C(CSC)NC(=O)c1sc(Cl)c(Cl)c1Cl (stereo not shown) [I.143],90 to 100
3,COC(=O)C[C@H](NC(=O)c1sc(Cl)c(Cl)c1Cl)C(=O)OC [I.144],80 to 89

# Same assay, conditions: 500 ppm of active ingredient, evaluated 5 or 6 days after inoculation, read-out: efficacy
row,SMILES,pest or weed control at 500 ppm [%]
1,COC(=O)[C@H](CCCNC(=N)N)NC(=O)c1sc(Cl)c(Cl)c1Cl [I.008],70 to 79
2,CCOC(=O)C(C#N)NC(=O)c1sc(Cl)c(Cl)c1Cl (stereo not shown) [I.009],90 to 100
3,"O=C(O)CNC(=S)c1sc(Cl)c(Cl)c1Cl [I.022, N-[(3,4,5-trichloro-2-thienyl)carbonothioyl]glycine]",90 to 100
4,"COC(=O)CNC(=S)c1sc(Cl)c(Cl)c1Cl [I.038, methyl N-[(3,4,5-trichloro-2-thienyl)carbonothioyl]glycinate]",70 to 79

# System: Peronospora parasitica
# Assay: In vivo preventive test on Peronospora parasitica (Crucifer downy mildew)
# Conditions: Hyaloperonospora parasitica, in Brassica oleracea, 120 h, 31 ppm of active ingredient, cabbage, evaluated 5 days after inoculation, read-out: efficacy
# Procedure, shortened: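 Young cabbage plants were sprayed with compound in acetone/DMSO/Tween diluted with water, then inoculated 72 h later with a Peronospora parasitica spore suspension. Plants were kept 5 days at 20 °C and 100% RH. Efficacy was scored with 0% equal to solvent-treated controls and 100% meaning no disease.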
row,SMILES,pest or weed control at 31 ppm [%]
1,COC(=O)[C@H](CCCNC(=N)N)NC(=O)c1sc(Cl)c(Cl)c1Cl [I.008],90 to 100
2,CCOC(=O)C(C#N)NC(=O)c1sc(Cl)c(Cl)c1Cl (stereo not shown) [I.009],90 to 100
3,"O=C(O)CNC(=S)c1sc(Cl)c(Cl)c1Cl [I.022, N-[(3,4,5-trichloro-2-thienyl)carbonothioyl]glycine]",90 to 100
4,"COC(=O)CNC(=S)c1sc(Cl)c(Cl)c1Cl [I.038, methyl N-[(3,4,5-trichloro-2-thienyl)carbonothioyl]glycinate]",90 to 100
5,COC(=O)[C@H](CSC(=O)N(C)C)NC(=O)c1sc(Cl)c(Cl)c1Cl [I.142],90 to 100
6,CCOC(=O)C(CSC)NC(=O)c1sc(Cl)c(Cl)c1Cl (stereo not shown) [I.143],90 to 100
7,COC(=O)C[C@H](NC(=O)c1sc(Cl)c(Cl)c1Cl)C(=O)OC [I.144],90 to 100

# Same assay, conditions: Hyaloperonospora parasitica, in Brassica oleracea, 120 h, 125 ppm of active ingredient, cabbage, evaluated 5 days after inoculation, read-out: efficacy
row,SMILES,pest or weed control at 125 ppm [%]
1,COC(=O)[C@H](CCCNC(=N)N)NC(=O)c1sc(Cl)c(Cl)c1Cl [I.008],90 to 100
2,CCOC(=O)C(C#N)NC(=O)c1sc(Cl)c(Cl)c1Cl (stereo not shown) [I.009],90 to 100
3,"O=C(O)CNC(=S)c1sc(Cl)c(Cl)c1Cl [I.022, N-[(3,4,5-trichloro-2-thienyl)carbonothioyl]glycine]",90 to 100
4,"COC(=O)CNC(=S)c1sc(Cl)c(Cl)c1Cl [I.038, methyl N-[(3,4,5-trichloro-2-thienyl)carbonothioyl]glycinate]",90 to 100
5,COC(=O)[C@H](CSC(=O)N(C)C)NC(=O)c1sc(Cl)c(Cl)c1Cl [I.142],90 to 100
6,CCOC(=O)C(CSC)NC(=O)c1sc(Cl)c(Cl)c1Cl (stereo not shown) [I.143],90 to 100
7,COC(=O)C[C@H](NC(=O)c1sc(Cl)c(Cl)c1Cl)C(=O)OC [I.144],90 to 100

# Same assay, conditions: Hyaloperonospora parasitica, in Brassica oleracea, 120 h, 500 ppm of active ingredient, cabbage, evaluated 5 days after inoculation, read-out: efficacy
row,SMILES,pest or weed control at 500 ppm [%]
1,COC(=O)[C@H](CCCNC(=N)N)NC(=O)c1sc(Cl)c(Cl)c1Cl [I.008],90 to 100
2,CCOC(=O)C(C#N)NC(=O)c1sc(Cl)c(Cl)c1Cl (stereo not shown) [I.009],90 to 100
3,"O=C(O)CNC(=S)c1sc(Cl)c(Cl)c1Cl [I.022, N-[(3,4,5-trichloro-2-thienyl)carbonothioyl]glycine]",90 to 100
4,"COC(=O)CNC(=S)c1sc(Cl)c(Cl)c1Cl [I.038, methyl N-[(3,4,5-trichloro-2-thienyl)carbonothioyl]glycinate]",90 to 100

# System: Colletotrichum lindemuthianum
# Assay: Colletotrichum lindemuthianum in vitro cell test
# Format: cell-based
# Conditions: 144 h, 20 ppm of active ingredient, 6 days incubation, read-out: efficacy (inhibition of fungal growth)
# Description: • Solvent: DMSO • Culture medium: 14.6 g anhydrous D-glucose (VWR), 7.1 g Mycological Peptone (Oxoid), 1.4 g granulated Yeast Extract (Merck), QSP 1 liter • Inoculum: spores suspension
# Fungicides were solubilized in DMSO and the solution used to prepare the required range of concentrations. The final concentration of DMSO used in the assay was ≤[…]1%.
# A spore suspension of C. lindemuthianum was prepared and diluted to the desired spore density.
# Fungicides were evaluated for their ability to inhibit spores germination and mycelium growth in liquid culture assay. The compounds were added in the desired concentration to the culture medium with spores. After 6 days incubation, fungi-toxicity of compounds was determined by spectrometric measurement of mycelium growth. Inhibition of fungal growth was determined by comparing the absorbance values in wells containing the fungicides with the absorbance in control wells without fungicides.
row,SMILES,inhibition at 20 ppm [%]
1,COC(=O)[C@H](CCCNC(=N)N)NC(=O)c1sc(Cl)c(Cl)c1Cl [I.008],≤ 30
2,CCOC(=O)C(C#N)NC(=O)c1sc(Cl)c(Cl)c1Cl (stereo not shown) [I.009],≤ 30
3,"O=C(O)CNC(=S)c1sc(Cl)c(Cl)c1Cl [I.022, N-[(3,4,5-trichloro-2-thienyl)carbonothioyl]glycine]",≤ 30
4,"COC(=O)CNC(=S)c1sc(Cl)c(Cl)c1Cl [I.038, methyl N-[(3,4,5-trichloro-2-thienyl)carbonothioyl]glycinate]",≤ 30
5,CCOC(=O)C(CSC)NC(=O)c1sc(Cl)c(Cl)c1Cl (stereo not shown) [I.143],≤ 30

# System: Colletotrichum lindemuthianum
# Assay: In vivo preventive test on Colletotrichum lindemuthianum (Antrachnose on bean)
# Conditions: 144 h, 31 ppm of active ingredient, inoculation 72 h after spraying, evaluated 6 days after inoculation, read-out: efficacy
# Procedure, shortened: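 Young bean plants sprayed preventively with compound in acetone/DMSO/Tween diluted in water, then spore-inoculated 72 h later. Incubation 24 h at 20° C./100% RH, then 5 days at 20° C./90% RH; scored 6 days post-inoculation as % efficacy (0% = solvent-treated control, 100% = no disease).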
row,SMILES,pest or weed control at 31 ppm [%]
1,"O=C(O)CNC(=S)c1sc(Cl)c(Cl)c1Cl [I.022, N-[(3,4,5-trichloro-2-thienyl)carbonothioyl]glycine]",70 to 79
2,"COC(=O)CNC(=S)c1sc(Cl)c(Cl)c1Cl [I.038, methyl N-[(3,4,5-trichloro-2-thienyl)carbonothioyl]glycinate]",90 to 100
3,COC(=O)[C@H](CSC(=O)N(C)C)NC(=O)c1sc(Cl)c(Cl)c1Cl [I.142],80 to 89
4,CCOC(=O)C(CSC)NC(=O)c1sc(Cl)c(Cl)c1Cl (stereo not shown) [I.143],70 to 79
5,COC(=O)C[C@H](NC(=O)c1sc(Cl)c(Cl)c1Cl)C(=O)OC [I.144],80 to 89

# Same assay, conditions: 144 h, 500 ppm of active ingredient, inoculation 72 h after spraying, evaluated 6 days after inoculation, read-out: efficacy
row,SMILES,pest or weed control at 500 ppm [%]
1,CCOC(=O)C(C#N)NC(=O)c1sc(Cl)c(Cl)c1Cl (stereo not shown) [I.009],90 to 100
2,"O=C(O)CNC(=S)c1sc(Cl)c(Cl)c1Cl [I.022, N-[(3,4,5-trichloro-2-thienyl)carbonothioyl]glycine]",90 to 100
3,"COC(=O)CNC(=S)c1sc(Cl)c(Cl)c1Cl [I.038, methyl N-[(3,4,5-trichloro-2-thienyl)carbonothioyl]glycinate]",90 to 100

# System: Xanthomonas campestris pv. campestris
# Assay: Xanthomonas campestris pv. campestris in vitro cell test
# Format: cell-based
# Conditions: 20 ppm of active ingredient, 24 h incubation, read-out: efficacy (inhibition of bacteria growth)
# Procedure, shortened: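 Bacteria from a liquid pre-culture, diluted to a set OD, were grown in LB broth with compound at the required concentrations (final DMSO ≤1%). After 24 h, growth was read spectrometrically. Inhibition was derived from absorbance versus compound-free controls.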
row,SMILES,inhibition at 20 ppm [%]
1,COC(=O)[C@H](CCCNC(=N)N)NC(=O)c1sc(Cl)c(Cl)c1Cl [I.008],≤ 30
2,CCOC(=O)C(C#N)NC(=O)c1sc(Cl)c(Cl)c1Cl (stereo not shown) [I.009],≤ 30
3,"O=C(O)CNC(=S)c1sc(Cl)c(Cl)c1Cl [I.022, N-[(3,4,5-trichloro-2-thienyl)carbonothioyl]glycine]",≤ 30
4,"COC(=O)CNC(=S)c1sc(Cl)c(Cl)c1Cl [I.038, methyl N-[(3,4,5-trichloro-2-thienyl)carbonothioyl]glycinate]",≤ 30
5,COC(=O)[C@H](CSC(=O)N(C)C)NC(=O)c1sc(Cl)c(Cl)c1Cl [I.142],≤ 30
6,CCOC(=O)C(CSC)NC(=O)c1sc(Cl)c(Cl)c1Cl (stereo not shown) [I.143],≤ 30
7,COC(=O)C[C@H](NC(=O)c1sc(Cl)c(Cl)c1Cl)C(=O)OC [I.144],≤ 30

# Source: patent US20230055705A1, “SUBSTITUTED THIOPHENE CARBOXAMIDES AND DERIVATIVES THEREOF” (Bayer Aktiengesellschaft, priority 2019, published 2023)
